Literature values as cited in patent US12253532B2, “Mass spectrometric quantitation assay for metabolites of leflunomide” (Quest Diagnostics Investments LLC, priority 2010, dated 2025).
Like-named read-outs stand apart in the source and are kept apart here.

For CC(O)=C(C#N)C(=O)Nc1ccc(C(F)(F)F)cc1 [teriflunomide, 2-cyano-3-hydroxy-N-(4-trifluoromethylphenyl)-2-butenamide], the “Mean steady state plasma concentration of teriflunomide” value (“Mean steady state plasma concentration” for short) (patients on daily dosage of 5 mg leflunomide) is listed as “about 8800 ng/mL”, the “Mean steady state plasma concentration” value (patients on daily dosage of 10 mg leflunomide) is listed as ~18,000 ng/mL and the “Mean steady state plasma concentration” value (patients on daily dosage of 25 mg leflunomide) is listed as ~63,000 ng/mL.
